Source: ChEMBL document CHEMBL1926641, “Farinamycin, a quinazoline from Streptomyces griseus” (J Nat Prod, 2011)
Calls of active or inactive are those of the source.

Key:
Candida albicans = experiment: Antifungal activity against Candida albicans BMSY 212 at <= 100 ug/ml by agar diffusion assay; format: functional, organism-based
K562 = experiment: Cytotoxicity against human K562 cells at <= 50 ug/ml; format: functional, cell-based
[1] = tested on: Sporobolomyces salmonicolor; experiment: Antimicrobial activity against Sporobolomyces salmonicolor SBUG 549 at <= 100 ug/ml by agar diffusion assay; format: functional, organism-based
Escherichia coli = experiment: Antimicrobial activity against Escherichia coli SG 458 at <= 100 ug/ml by agar diffusion assay; format: functional, organism-based
Pseudomonas aeruginosa = experiment: Antimicrobial activity against Pseudomonas aeruginosa K 799/61 at <= 100 ug/ml by agar diffusion assay; format: functional, organism-based
Staphylococcus aureus = experiment: Antimicrobial activity against Staphylococcus aureus SG 511 at <= 100 ug/ml by agar diffusion assay; format: functional, organism-based
Mycolicibacterium vaccae = experiment: Antimicrobial activity against Mycobacterium vaccae IMET 10670 at <= 100 ug/ml by agar diffusion assay; format: functional, organism-based
HUVEC = experiment: Antiproliferative activity against human HUVEC cells at <= 50 ug/ml; format: cell-based
Bacillus subtilis = experiment: Antimicrobial activity against Bacillus subtilis ATCC 6633 at <= 100 ug/ml by agar diffusion assay; format: functional, organism-based
Penicillium chrysogenum = experiment: Antifungal activity against Penicillium notatum JP 36 at <= 100 ug/ml by agar diffusion assay; format: functional, organism-based
HeLa = experiment: Cytotoxicity against human HeLa cells at <= 50 ug/ml; format: functional, cell-based

Measured: Activity

NC(=O)C1=C(N)[C@@H](O)[C@H](O)[C@@H](Nc2cc(-c3nc4c(O)cccc4c(=O)[nH]3)ccc2O)C1=O [FARINAMYCIN]
Non-toxic: HUVEC
inactive: all other assays above
